Converted amounts (≈) assume the structure as drawn.
Key:
physchem [1] = assay: physchem
in vitro [2] = conditions: hepatocytes
in vitro [3] = conditions: human, plasma
physchem [4] = conditions: octan-1-ol/water, pH 7.4, LogD7.4
in vitro [5] = conditions: human
physchem [6] = conditions: pH 7.4 buffer
in vitro [7] = conditions: human, hepatocytes
in vitro [8] = conditions: SD, HW or BN, rat, plasma

| Compound | pKa (physchem [1]) | hepatocyte CLint (in vitro [2]) [µL/min/1e6 cells] | logD (physchem [4]) | microsomal CLint (in vitro [5]; liver microsomes) [µL/min/mg] | hepatocyte CLint (in vitro [7]) [µL/min/1e6 cells] | further results |
| --- | --- | --- | --- | --- | --- | --- |
| c1ccc2c(c1)CCCC2C1=NCCN1 (centres undefined) [TETRAHYDROZOLINE] | 10.6 | – | – | – | – | – |
| NCCc1ccc(Cl)cc1 | 10.1 | – | – | – | – | – |
| c1ccc(CSc2nnc([C@@H]3CCCN3)o2)cc1 | 7.03 | – | – | – | – | – |
| O=C1COC2(CCN(S(=O)(=O)c3ccc(-c4ccc5cnccc5c4)cc3)CC2)CN1C1CC1 | – | > 150 | 3.32 | 115 | > 150 | fraction unbound at 5 h (in vitro [3]; PPB): 0.0018; solubility thermodynamic (physchem [6]): 2.2 µM (≈ 1.05 µg/mL) |
| O=C(c1ccccc1)N1CCN(Cc2ccccc2)CC1 | 6.2 | – | – | – | – | – |
| O=C(O)/C=C/c1cccnc1 | 4.4 | – | – | – | – | – |
| CCc1nc2c(C)cc(C)nc2[nH]1 | 5.5 | – | – | – | – | – |
| N#CCC(CNc1ncc(C(F)(F)F)cc1Cl)OC(=O)c1c(F)cccc1F (centres undefined) | – | > 150 | – | > 150 | > 150 | – |
| NCCc1ccc([N+](=O)[O-])cc1 | 9.4 | – | – | – | – | – |
| O=C(Nc1nc2ccccc2s1)c1ccccc1 | – | 64.6 | – | – | 77.6 | microsomal CLint (in vitro [5]; microsomes): > 150 µL/min/mg |
| O=C(Nc1cc(-c2ccnc(Nc3ccccc3)c2)ccn1)C1CCOCC1 | – | > 150 | 3.7 | 12.6 | 16.2 | – |
| CCc1ncc[nH]1 | 7.8 | – | – | – | – | – |
| Cc1c(C)c2c(c(C)c1O)CCC(C)(COc1ccc(CC3SC(=O)NC3=O)cc1)O2 (centres undefined) [TROGLITAZONE] | – | > 150 | – | 49 | 28.2 | fraction unbound at 5 h (in vitro [3]; PPB): 0.0009 |
| Cc1nc(N)sc1C | 6.3 | – | – | – | – | – |
| C[C@H]1CN(Cc2cc(Cl)ccc2OCC(=O)O)CCN1C(=O)Cc1ccc(F)cc1 | – | < 3 | – | – | < 3 | fraction unbound at 5 h (in vitro [3]): 0.0287; microsomal CLint (in vitro [5]; microsomes): < 3 µL/min/mg; fraction unbound at 5 h (in vitro [8]): 0.0928 |
| CCOC(=O)/C=C/[C@H](C[C@@H]1CCNC1=O)NC(=O)[C@@H](CC(=O)[C@@H](NC(=O)c1cc(C)on1)C(C)C)Cc1ccc(F)cc1 | – | > 150 | 2.8 | 105 | 40.7 | – |
| O=C(c1ccc(F)cc1)C1CCN(CCn2c(=O)[nH]c3ccccc3c2=O)CC1 [KETANSERIN] | – | 24.6 | – | – | 30.2 | fraction unbound at 5 h (in vitro [3]; PPB): 0.0968; fraction unbound at 5 h (in vitro [8]): 0.0064 |
| C[C@H](CO)Nc1nc(SCc2ccccc2F)nc2nc(N)sc12 | – | 19 | 3.12 | – | 5.75 | microsomal CLint (in vitro [5]; microsomes): 8.13 µL/min/mg |
| O=C(O[C@H]1C[N+]2(CCCOc3ccccc3)CCC1CC2)C(O)(c1cccs1)c1cccs1 | – | 80 | – | 140 | 64 | solubility thermodynamic (physchem [6]): 339 µM |
| Cc1cc(F)ccc1-n1nc(C(F)(F)F)cc1-c1ccc2c(c1)NC(=O)CO2 | – | 28.2 | – | 14.4 | 10.7 | fraction unbound at 5 h (in vitro [8]): 0.19 |
| CC(C)(C)NS(=O)(=O)c1cncc(-c2ccc3nc(NC(=O)NCC(=O)N4CCCC4)nn3c2)c1 | – | < 3 | 1.37 | – | 4.79 | fraction unbound at 5 h (in vitro [3]; PPB): 0.329; microsomal CLint (in vitro [5]; microsomes): 5 µL/min/mg; solubility thermodynamic (physchem [6]): 6.6 µM (≈ 3.3 µg/mL); fraction unbound at 5 h (in vitro [8]): 0.232 |
| O=c1[nH]c2c(O)ccc([C@@H](O)CNCCc3cccc(CNCCc4c(Cl)cccc4Cl)c3)c2s1 | – | 78 | 3.15 | 63 | 5.17 | – |
| CN1CCN(c2nc3ccccc3cc2Cn2nc(-c3ccc4nc(N)sc4c3)c3c(N)ncnc32)CC1 | – | 81 | 3.09 | 72 | 7.59 | solubility thermodynamic (physchem [6]): 100 µM (≈ 52.3 µg/mL) |
| C[C@]12CCC(=O)C=C1C=C[C@@H]1[C@@H]2CC[C@@]2(C)[C@H]1CC[C@@]21CCC(=O)O1 [CANRENONE] | – | 45.7 | 3.2 | 14.4 | 6.61 | fraction unbound at 5 h (in vitro [3]; PPB): 0.0594; fraction unbound at 5 h (in vitro [8]): 0.0383 |
| CCS(=O)(=O)CCCC12CCC(c3nnc(-c4ccccc4C(F)(F)F)n3C)(CC1)CC2 [MK-0736] | – | < 3 | – | < 3 | < 3 | – |
